Experimental data as given in US7994185B2, “Benzene sulfonamide thiazole and oxazole compounds” (Glaxo Smith Kline LLC, priority 2008, dated 2011).
Structures can show the parent of a compound that is named as a salt. Where two headings read alike, the source gives them in different places.

Columns and labels:
[1] = molecular target: T1, BRAFV600E full-length (amino acids 2-766) (Homo sapiens, UniProt P15056, V600E); assay: B-Raf Accelerated MEK ATPase assay (BRAMA); format: biochemical; settings: categorized
T1 construct: His6-tagged BRAFV600E full-length (amino acids 2-766); His6; made in house; host or cells: baculovirus expression system (insect cells)
In short: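 Coupled-enzyme readout: ADP generated by MEK-mediated ATP hydrolysis, uncoupled from ERK phosphorylation, is linked to NADH oxidation through pyruvate kinase and lactate dehydrogenase.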

[2] = tested on: Human colon tumor cells (Colo205); assay: Cell growth inhibition assay (CellTiter-Glo), Colo205; format: cell-based
Method: Human colon tumor cells (Colo205) were cultured in RPMI (Mediatech 50-020-PB) containing 10% FBS and 1% penicillin-streptomycin.
The next day, compounds were diluted as follow: For 96-well assays, 13.5 μL of compound in DMSO were diluted using nine (9) serial 1:3 dilutions of 4.5 μL in 9 μL of DMSO. Medium (270 μL/well of RPMI with 10% FBS and 1% penicillin-streptomycin) was added to the plates. Aliquots (7 μL) were added to cells in the final assay giving a final DMSO concentration of 0.2%. For 384-well assays, 15 μL of compound in DMSO were diluted using nine (9) serial 1:3 dilutions of 5 μL in 10 μL of DMSO, followed by a further dilution of 5 μL of compound with 95 μL of medium, of which 2 μL were added to cells in the final assay giving a final DMSO concentration of 0.2%. Cells were incubated at 37° C., 5% CO2 for 3 days.
Total ATP was measured (as a surrogate estimate of cell number) using CellTiter-Glo® reagent (Promega G7571). Briefly, plates were removed from the incubator and allowed to equilibrate to room temperature for 30 minutes. CellTiter-Glo® (25 μL or 55 μL for 384-well or 96-well assays, respectively) reagent was added to each well and plates were shaken on an orbital plate shaker for 2 minutes. Plates were incubated without shaking for a further 30 minutes and read on an LJL Analyst GT reader in luminometer mode with an integration time of 0.5 seconds per well. Percent inhibition of cell growth was calculated relative to DMSO vehicle-treated control wells.

[3] = tested on: Human melanoma cancer cells (SK-MEL-28); assay: Cell growth inhibition assay (CellTiter-Glo), SK-MEL-28; format: cell-based
[4] = B-Raf Activity, Table 1a, highest pIC50 for the one or more runs
[5] = B-Raf pIC50, Table 1b, later runs, average pIC50 for the one or more runs
[6] = COLO 205, 72 h, Table 2a, 3 days incubation, read-out: Activity in Colo205 Tumor Cells
[7] = COLO 205, Table 2b, later runs, average for the one or more runs, categorized, read-out: IC50 for Colo205
[8] = SK-MEL-28, 72 h, Table 3a, 3 days incubation, read-out: Activity in SK-MEL-28 Tumor Cells
[9] = SK-MEL-28, Table 3b, later runs, average for the one or more runs, categorized, read-out: IC50 for SK-MEL-28
[10] = Table 1b, later runs, average pIC50 for the one or more runs, read-out: B-Raf pIC50 (converted)

T1 sequence (P15056 2-766 V600E): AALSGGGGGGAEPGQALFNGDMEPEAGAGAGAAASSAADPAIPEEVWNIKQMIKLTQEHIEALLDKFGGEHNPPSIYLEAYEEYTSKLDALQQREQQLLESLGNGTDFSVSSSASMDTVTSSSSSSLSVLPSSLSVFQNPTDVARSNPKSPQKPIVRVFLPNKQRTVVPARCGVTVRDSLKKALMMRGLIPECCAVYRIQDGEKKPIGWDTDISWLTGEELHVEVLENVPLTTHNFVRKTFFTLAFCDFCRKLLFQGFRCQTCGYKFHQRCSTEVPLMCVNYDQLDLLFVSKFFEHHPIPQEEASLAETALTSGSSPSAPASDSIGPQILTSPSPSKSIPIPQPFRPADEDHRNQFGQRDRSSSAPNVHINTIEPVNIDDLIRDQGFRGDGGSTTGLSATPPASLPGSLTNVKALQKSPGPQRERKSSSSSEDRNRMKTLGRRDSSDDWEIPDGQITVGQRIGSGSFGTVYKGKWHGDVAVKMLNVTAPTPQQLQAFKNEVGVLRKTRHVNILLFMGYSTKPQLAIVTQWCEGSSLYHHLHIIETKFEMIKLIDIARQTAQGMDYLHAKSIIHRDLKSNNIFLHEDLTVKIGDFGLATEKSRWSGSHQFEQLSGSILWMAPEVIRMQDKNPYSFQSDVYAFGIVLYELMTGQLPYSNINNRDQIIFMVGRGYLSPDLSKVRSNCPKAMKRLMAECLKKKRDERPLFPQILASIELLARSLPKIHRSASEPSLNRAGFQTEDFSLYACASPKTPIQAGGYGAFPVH

Row | SMILES | IC50 [1, 4] | IC50 [1, 5] | IC50 [2, 6] | IC50 [2, 7] | IC50 [3, 8] | IC50 [3, 9] | IC50 [1, 10]
1 | CC(C)c1nc(-c2cccc(NS(=O)(=O)c3cccs3)c2)c(-c2ccnc(NCCS(C)(=O)=O)n2)s1 [Example 31, N-{3-[2-(1-Methylethyl)-5-(2-{[2-(methylsulfonyl)ethyl]amino}-4-pyrimidinyl)-1,3-thiazol-4-yl]phenyl}-2-thiophenesulfonamide] | < 0.1 µM | ≤ 0.00316 µM | < 0.1 µM | < 0.1 µM | < 0.1 µM | < 0.1 µM | 
2 | CS(=O)(=O)CCNc1nccc(-c2sc(N3CCCC3)nc2-c2cccc(NS(=O)(=O)c3c(F)cccc3F)c2)n1 [Example 32, 2,6-Difluoro-N-{3-[5-(2-{[2-(methylsulfonyl)ethyl]amino}-4-pyrimidinyl)-2-(1-pyrrolidinyl)-1,3-thiazol-4-yl]phenyl}benzenesulfonamide] | < 0.1 µM | ≤ 0.00316 µM | < 0.1 µM | < 0.1 µM | < 0.1 µM | < 0.1 µM | 
3 | CC(C)c1nc(-c2cccc(NS(=O)(=O)c3cccnc3)c2)c(-c2ccnc(NCCS(C)(=O)=O)n2)s1 [Example 33, N-{3-[2-(1-Methylethyl)-5-(2-{[2-(methylsulfonyl)ethyl]amino}-4-pyrimidinyl)-1,3-thiazol-4-yl]phenyl}-3-pyridinesulfonamide] | < 0.1 µM | ≤ 0.00316 µM | < 0.1 µM | < 0.1 µM | < 0.1 µM | < 0.1 µM | 
4 | CC(C)c1nc(-c2ccc(F)c(NS(=O)(=O)c3ccco3)c2)c(-c2ccnc(NCCS(C)(=O)=O)n2)s1 [Example 34, N-{2-Fluoro-5-[2-(1-methylethyl)-5-(2-{[2-(methylsulfonyl)ethyl]amino}-4-pyrimidinyl)-1,3-thiazol-4-yl]phenyl}-2-furansulfonamide trifluoroacetic acid salt] | < 0.1 µM |  | > 1 µM | 1 to 10 µM | > 1 µM | 1 to 10 µM | 0.00316 to 0.0316 µM
5 | CC(C)c1nc(-c2cccc(NS(=O)(=O)c3cnn(C)c3)c2)c(-c2ccnc(NCCS(C)(=O)=O)n2)s1 [Example 35, 1-Methyl-N-{3-[2-(1-methylethyl)-5-(2-{[2-(methylsulfonyl)ethyl]amino}-4-pyrimidinyl)-1,3-thiazol-4-yl]phenyl}-1H-pyrazole-4-sulfonamide trifluoroacetic acid salt] | < 0.1 µM |  | 0.1 to 1 µM | 0.1 to 1 µM | 0.1 to 1 µM | 0.1 to 1 µM | 0.00316 to 0.0316 µM
6 | CC(C)c1nc(-c2ccc(F)c(NS(=O)(=O)c3cn(C)cn3)c2)c(-c2ccnc(NCCCS(C)(=O)=O)n2)s1 [Example 36, N-{2-Fluoro-5-[2-(1-methylethyl)-5-(2-{[3-(methylsulfonyl)propyl]amino}-4-pyrimidinyl)-1,3-thiazol-4-yl]phenyl}-1-methyl-1H-imidazole-4-sulfonamide] | 0.1 to 1 µM | 0.0316 to 1 µM | > 1 µM |  | > 1 µM |  | 
7 | CC(C)c1nc(-c2cccc(NS(=O)(=O)N3CCOCC3)c2)c(-c2ccnc(NCCS(C)(=O)=O)n2)s1 [Example 37, N-{3-[2-(1-Methylethyl)-5-(2-{[2-(methylsulfonyl)ethyl]amino}-4-pyrimidinyl)-1,3-thiazol-4-yl]phenyl}-4-morpholinesulfonamide trifluoroacetic acid salt] | 0.1 to 1 µM | 0.0316 to 1 µM | 0.1 to 1 µM | 0.1 to 1 µM | 0.1 to 1 µM | 0.1 to 1 µM | 
8 | COc1ccc(F)cc1S(=O)(=O)Nc1cccc(-c2nc(C(C)C)sc2-c2ccnc(NCC(C)C)n2)c1 [Example 38, 5-Fluoro-N-[3-(2-(1-methylethyl)-5-{2-[(2-methylpropyl)amino]-4-pyrimidinyl}-1,3-thiazol-4-yl)phenyl]-2-(methyloxy)benzenesulfonamide] | 0.1 to 1 µM | 0.0316 to 1 µM | > 1 µM | 1 to 10 µM | > 1 µM | 1 to 10 µM | 
9 | Cc1ccccc1S(=O)(=O)Nc1cccc(-c2nc(C(C)C)sc2-c2ccnc(NCC(C)C)n2)c1F [Example 39, N-[2-Fluoro-3-(2-(1-methylethyl)-5-{2-[(2-methylpropyl)amino]-4-pyrimidinyl}-1,3-thiazol-4-yl)phenyl]-2-methylbenzenesulfonamide] | < 0.1 µM |  | 0.1 to 1 µM | 0.1 to 1 µM | 0.1 to 1 µM | 0.1 to 1 µM | 0.00316 to 0.0316 µM
10 | CC(C)c1nc(-c2cccc(NS(=O)(=O)c3nccs3)c2F)c(-c2ccnc(NC3CCN(S(C)(=O)=O)CC3)n2)s1 [Example 40, N-{2-Fluoro-3-[2-(1-methylethyl)-5-(2-{[1-(methylsulfonyl)-4-piperidinyl]amino}-4-pyrimidinyl)-1,3-thiazol-4-yl]phenyl}-1,3-thiazole-2-sulfonamide] | < 0.1 µM | ≤ 0.00316 µM | 0.1 to 1 µM | 0.1 to 1 µM | 0.1 to 1 µM | 0.1 to 1 µM | 
11 | CS(=O)(=O)N1CCC(Nc2nccc(-c3sc(N4CCOCC4)nc3-c3cccc(NS(=O)(=O)c4ccco4)c3F)n2)CC1 [Example 41, N-{2-Fluoro-3-[5-(2-{[1-(methylsulfonyl)-4-piperidinyl]amino}-4-pyrimidinyl)-2-(4-morpholinyl)-1,3-thiazol-4-yl]phenyl}-2-furansulfonamide] | < 0.1 µM | ≤ 0.00316 µM | < 0.1 µM | < 0.1 µM | < 0.1 µM | 0.1 to 1 µM | 
12 | CC(C)CNc1nccc(-c2sc(C(C)C)nc2-c2cccc(NS(=O)(=O)c3cccnc3)c2F)n1 [Example 42, N-[2-Fluoro-3-(2-(1-methylethyl)-5-{2-[(2-methylpropyl)amino]-4-pyrimidinyl}-1,3-thiazol-4-yl)phenyl]-3-pyridinesulfonamide] | < 0.1 µM | ≤ 0.00316 µM | < 0.1 µM | < 0.1 µM | < 0.1 µM | < 0.1 µM | 
13 | CC(C)CNc1nccc(-c2sc(N3CCOCC3)nc2-c2cccc(NS(=O)(=O)c3ccco3)c2F)n1 [Example 43, N-{2-fluoro-3-[5-{2-[(2-methylpropyl)amino]-4-pyrimidinyl}-2-(4-morpholinyl)-1,3-thiazol-4-yl]phenyl}-2-furansulfonamide] | < 0.1 µM | ≤ 0.00316 µM | 0.1 to 1 µM | 0.1 to 1 µM | 0.1 to 1 µM | 0.1 to 1 µM | 
14 | COc1c(NS(=O)(=O)c2c(F)cccc2F)cccc1-c1nc(C(C)C)sc1-c1ccnc(NCC(C)C)n1 [Example 44, 2,6-Difluoro-N-[3-(2-(1-methylethyl)-5-{2-[(2-methylpropyl)amino]-4-pyrimidinyl}-1,3-thiazol-4-yl)-2-(methyloxy)phenyl]benzenesulfonamide] | < 0.1 µM |  | > 1 µM | 1 to 10 µM | > 1 µM | 1 to 10 µM | 0.00316 to 0.0316 µM
15 | CC(C)CNc1nccc(-c2sc(N3CCOCC3)nc2-c2cccc(NS(=O)(=O)c3cccnc3)c2F)n1 [Example 45, N-{2-Fluoro-3-[5-{2-[(2-methylpropyl)amino]-4-pyrimidinyl}-2-(4-morpholinyl)-1,3-thiazol-4-yl]phenyl}-3-pyridinesulfonamide] | < 0.1 µM | ≤ 0.00316 µM | 0.1 to 1 µM | 0.1 to 1 µM | 0.1 to 1 µM | 0.1 to 1 µM | 
